Earlier results in US7666858B2, “Pharmaceutical composition for treatment of phimosis using topical corticosteroid” (Apsen Farmaceutica S.A., priority 2000, dated 2010).

Columns and labels:
[1] = Lindhagen 1996

Row | solubility in alcohol (alcohol) | solubility in water (water) | Compound | success [1] [%]
1 | partially alcohol-soluble | water-insoluble | C[C@H]1C[C@H]2[C@@H]3CCC4=CC(=O)C=C[C@]4(C)[C@@]3(F)[C@@H](O)C[C@]2(C)[C@@]1(O)C(=O)CO [Betamethasone] | –
2 | – | – | CCC(=O)O[C@]1(C(=O)CCl)[C@@H](C)C[C@H]2[C@@H]3CCC4=CC(=O)C=C[C@]4(C)[C@@]3(F)[C@@H](O)C[C@@]21C [clobetasol propionate] | 70
